Results: BigSolDB 2.1

For OC[C@H]1O[C@@H](c2ccc(Cl)c(Cc3ccc(O[C@H]4CCOC4)cc3)c2)[C@H](O)[C@@H](O)[C@@H]1O, which solubility (mole fraction) (in DMF, 278.15 K) is on record?
Its solubility (mole fraction) is 0.00117.

What about the solubility (mole fraction) (in DMF, 283.15 K) of the same molecule?
Its solubility (mole fraction) is 0.00124.

What about the solubility (mole fraction) (in DMF, 288.15 K) of the same molecule?
The solubility (mole fraction) was 0.00129.

And the solubility (mole fraction) (in DMF, 293.15 K)?
The solubility (mole fraction) was 0.00134.

What about the solubility (mole fraction) (in DMF, 298.15 K) of the same molecule?
The solubility (mole fraction) was 0.00142.

And the solubility (mole fraction) (in DMF, 303.15 K)?
The solubility (mole fraction) was 0.00149.

What about the solubility (mole fraction) (in DMF, 308.15 K) of the same molecule?
Its solubility (mole fraction) is 0.00158.

What about the solubility (mole fraction) (in DMF, 313.15 K) of the same molecule?
Its solubility (mole fraction) is 0.00165.

And the solubility (mole fraction) (in DMF, 318.15 K)?
The solubility (mole fraction) was 0.00171.

And the solubility (mole fraction) (in acetonitrile, 278.15 K)?
Its solubility (mole fraction) is 6.19e-07.

And the solubility (mole fraction) (in acetonitrile, 283.15 K)?
Its solubility (mole fraction) is 9.85e-07.

And the solubility (mole fraction) (in acetonitrile, 288.15 K)?
Its solubility (mole fraction) is 1.46e-06.

What about the solubility (mole fraction) (in acetonitrile, 293.15 K) of the same molecule?
The solubility (mole fraction) was 1.97e-06.

And the solubility (mole fraction) (in acetonitrile, 298.15 K)?
Its solubility (mole fraction) is 2.62e-06.

And the solubility (mole fraction) (in acetonitrile, 303.15 K)?
The solubility (mole fraction) was 3.52e-06.

And the solubility (mole fraction) (in acetonitrile, 308.15 K)?
The solubility (mole fraction) was 4.87e-06.

What about the solubility (mole fraction) (in acetonitrile, 313.15 K) of the same molecule?
Its solubility (mole fraction) is 6.15e-06.

And the solubility (mole fraction) (in acetonitrile, 318.15 K)?
The solubility (mole fraction) was 8.16e-06.

What about the solubility (mole fraction) (in ethanol, 278.15 K) of the same molecule?
Its solubility (mole fraction) is 2.33e-06.

What about the solubility (mole fraction) (in ethanol, 283.15 K) of the same molecule?
The solubility (mole fraction) was 3.77e-06.

What about the solubility (mole fraction) (in ethanol, 288.15 K) of the same molecule?
Its solubility (mole fraction) is 4.84e-06.

What about the solubility (mole fraction) (in ethanol, 293.15 K) of the same molecule?
The solubility (mole fraction) was 6.6e-06.

What about the solubility (mole fraction) (in ethanol, 298.15 K) of the same molecule?
Its solubility (mole fraction) is 8.45e-06.

And the solubility (mole fraction) (in ethanol, 303.15 K)?
Its solubility (mole fraction) is 1.1e-05.

What about the solubility (mole fraction) (in ethanol, 308.15 K) of the same molecule?
The solubility (mole fraction) was 1.4e-05.

And the solubility (mole fraction) (in ethanol, 313.15 K)?
Its solubility (mole fraction) is 1.85e-05.

What about the solubility (mole fraction) (in ethanol, 318.15 K) of the same molecule?
Its solubility (mole fraction) is 2.43e-05.

What about the solubility (mole fraction) (in ethyl acetate, 278.15 K) of the same molecule?
The solubility (mole fraction) was 7.16e-07.

And the solubility (mole fraction) (in ethyl acetate, 283.15 K)?
Its solubility (mole fraction) is 1.07e-06.

And the solubility (mole fraction) (in ethyl acetate, 288.15 K)?
The solubility (mole fraction) was 1.42e-06.

And the solubility (mole fraction) (in ethyl acetate, 293.15 K)?
The solubility (mole fraction) was 1.97e-06.

What about the solubility (mole fraction) (in ethyl acetate, 298.15 K) of the same molecule?
The solubility (mole fraction) was 2.56e-06.

And the solubility (mole fraction) (in ethyl acetate, 303.15 K)?
The solubility (mole fraction) was 3.12e-06.

And the solubility (mole fraction) (in ethyl acetate, 308.15 K)?
The solubility (mole fraction) was 4.27e-06.

What about the solubility (mole fraction) (in ethyl acetate, 313.15 K) of the same molecule?
Its solubility (mole fraction) is 5.56e-06.

What about the solubility (mole fraction) (in ethyl acetate, 318.15 K) of the same molecule?
The solubility (mole fraction) was 6.89e-06.

And the solubility (mole fraction) (in ethylene glycol, 278.15 K)?
Its solubility (mole fraction) is 1.16e-05.

What about the solubility (mole fraction) (in ethylene glycol, 283.15 K) of the same molecule?
Its solubility (mole fraction) is 1.48e-05.

What about the solubility (mole fraction) (in ethylene glycol, 288.15 K) of the same molecule?
The solubility (mole fraction) was 1.91e-05.

And the solubility (mole fraction) (in ethylene glycol, 293.15 K)?
Its solubility (mole fraction) is 2.43e-05.

And the solubility (mole fraction) (in ethylene glycol, 298.15 K)?
The solubility (mole fraction) was 3.41e-05.

What about the solubility (mole fraction) (in ethylene glycol, 303.15 K) of the same molecule?
Its solubility (mole fraction) is 4.21e-05.

And the solubility (mole fraction) (in ethylene glycol, 308.15 K)?
Its solubility (mole fraction) is 5.91e-05.

And the solubility (mole fraction) (in ethylene glycol, 313.15 K)?
Its solubility (mole fraction) is 7.01e-05.

What about the solubility (mole fraction) (in ethylene glycol, 318.15 K) of the same molecule?
The solubility (mole fraction) was 8.59e-05.

And the solubility (mole fraction) (in formamide, 278.15 K)?
Its solubility (mole fraction) is 8.05e-05.

And the solubility (mole fraction) (in formamide, 283.15 K)?
The solubility (mole fraction) was 9.2e-05.

What about the solubility (mole fraction) (in formamide, 288.15 K) of the same molecule?
Its solubility (mole fraction) is 0.000108.

What about the solubility (mole fraction) (in formamide, 293.15 K) of the same molecule?
Its solubility (mole fraction) is 0.000122.

And the solubility (mole fraction) (in formamide, 298.15 K)?
The solubility (mole fraction) was 0.000143.

And the solubility (mole fraction) (in formamide, 303.15 K)?
Its solubility (mole fraction) is 0.000174.

And the solubility (mole fraction) (in formamide, 308.15 K)?
The solubility (mole fraction) was 0.000202.

What about the solubility (mole fraction) (in formamide, 313.15 K) of the same molecule?
Its solubility (mole fraction) is 0.000248.

And the solubility (mole fraction) (in formamide, 318.15 K)?
Its solubility (mole fraction) is 0.000303.

And the solubility (mole fraction) (in methanol, 278.15 K)?
The solubility (mole fraction) was 1.77e-05.

What about the solubility (mole fraction) (in methanol, 283.15 K) of the same molecule?
The solubility (mole fraction) was 2.48e-05.

And the solubility (mole fraction) (in methanol, 288.15 K)?
The solubility (mole fraction) was 3e-05.

And the solubility (mole fraction) (in methanol, 293.15 K)?
Its solubility (mole fraction) is 3.65e-05.

And the solubility (mole fraction) (in methanol, 298.15 K)?
Its solubility (mole fraction) is 4.46e-05.

What about the solubility (mole fraction) (in methanol, 303.15 K) of the same molecule?
The solubility (mole fraction) was 5.54e-05.

What about the solubility (mole fraction) (in methanol, 308.15 K) of the same molecule?
The solubility (mole fraction) was 6.9e-05.

What about the solubility (mole fraction) (in methanol, 313.15 K) of the same molecule?
The solubility (mole fraction) was 8.53e-05.

What about the solubility (mole fraction) (in methanol, 318.15 K) of the same molecule?
The solubility (mole fraction) was 0.00011.

And the solubility (mole fraction) (in n-butanol, 278.15 K)?
Its solubility (mole fraction) is 1.81e-06.

What about the solubility (mole fraction) (in n-butanol, 283.15 K) of the same molecule?
The solubility (mole fraction) was 2.73e-06.

And the solubility (mole fraction) (in n-butanol, 288.15 K)?
Its solubility (mole fraction) is 4.04e-06.

What about the solubility (mole fraction) (in n-butanol, 293.15 K) of the same molecule?
The solubility (mole fraction) was 5.9e-06.

And the solubility (mole fraction) (in n-butanol, 298.15 K)?
Its solubility (mole fraction) is 8.49e-06.

What about the solubility (mole fraction) (in n-butanol, 303.15 K) of the same molecule?
The solubility (mole fraction) was 1.2e-05.

And the solubility (mole fraction) (in n-butanol, 308.15 K)?
Its solubility (mole fraction) is 1.62e-05.

And the solubility (mole fraction) (in n-butanol, 313.15 K)?
The solubility (mole fraction) was 2.21e-05.

And the solubility (mole fraction) (in n-butanol, 318.15 K)?
The solubility (mole fraction) was 3.02e-05.

What about the solubility (mole fraction) (in n-propanol, 278.15 K) of the same molecule?
Its solubility (mole fraction) is 1.59e-06.

What about the solubility (mole fraction) (in n-propanol, 283.15 K) of the same molecule?
Its solubility (mole fraction) is 2.43e-06.

And the solubility (mole fraction) (in n-propanol, 288.15 K)?
The solubility (mole fraction) was 3.39e-06.

And the solubility (mole fraction) (in n-propanol, 293.15 K)?
Its solubility (mole fraction) is 4.54e-06.

And the solubility (mole fraction) (in n-propanol, 298.15 K)?
Its solubility (mole fraction) is 6.09e-06.

And the solubility (mole fraction) (in n-propanol, 303.15 K)?
Its solubility (mole fraction) is 7.88e-06.

What about the solubility (mole fraction) (in n-propanol, 308.15 K) of the same molecule?
Its solubility (mole fraction) is 1.04e-05.

And the solubility (mole fraction) (in n-propanol, 313.15 K)?
The solubility (mole fraction) was 1.43e-05.

What about the solubility (mole fraction) (in n-propanol, 318.15 K) of the same molecule?
The solubility (mole fraction) was 1.99e-05.
